Molecules are shown by their SMILES.

Common to all, as to assay: NCI-60 single-dose screen
One assay deals with OVCAR-5. In kind it is cell-based. Particulars: Homo sapiens; OVCAR-5, 10^–5 M; read-out: GI (%). A digest of the protocol: (§1)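 Human tumor cells, 60-line NCI panel; compound dosed only at 10^−5 M.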
The next assay concerns SR. The assay is classed as cell-based. Particulars: Homo sapiens, 10^–5 M, read-out: GI (%). A digest of the protocol: as §1
Another assay deals with SK-MEL-28. In kind it is cell-based. The settings on record: Homo sapiens; SK-MEL-28, 10^–5 M; read-out: GI (%). The procedure, abridged:
as §1

The test system of a further assay is PC-3. The assay is classed as cell-based. The settings on record: Homo sapiens, PC-3, PC-3, 10^–5 M; read-out: GI (%). The procedure, abridged: as §1
The test system of the next assay is UACC-62. In kind it is cell-based. The settings on record: Homo sapiens; UACC-62, 10^–5 M; read-out: GI (%). A digest of the protocol: as §1
In the next assay the test system is HCC-2998. The assay is classed as cell-based. The settings on record: Homo sapiens; HCC-2998, 10^–5 M; read-out: GI (%). A digest of the protocol: as §1
The test system of a further assay is A549/ATCC. In kind it is cell-based. The settings on record: Homo sapiens, 10^–5 M, read-out: GI (%). The procedure, abridged: as §1
The test system of the next assay is ACHN. In kind it is cell-based. Particulars: Homo sapiens, 10^–5 M, read-out: GI (%). The procedure, abridged:
as §1

In the next assay the test system is MALME-3M. In kind it is cell-based. Particulars: Homo sapiens, 10^–5 M, read-out: GI (%). The procedure, abridged:
as §1

In a further assay the test system is NCI-H460. In kind it is cell-based. The settings on record: Homo sapiens; NCI-H460, 10^–5 M; read-out: GI (%). A digest of the protocol:
as §1

The test system of the next assay is IGROV1. In kind it is cell-based. Particulars: Homo sapiens, IGROV-1; IGROV1, 10^–5 M; read-out: GI (%). A digest of the protocol:
as §1

A further assay deals with DU-145. In kind it is cell-based. Particulars: Homo sapiens; DU-145, 10^–5 M; read-out: GI (%). A digest of the protocol: as §1
The next assay relates to CCRF-CEM. The assay is classed as cell-based. Particulars: Homo sapiens, 10^–5 M, read-out: GI (%). A digest of the protocol:
as §1

The next assay deals with OVCAR-4. In kind it is cell-based. Particulars: Homo sapiens; OVCAR-4, 10^–5 M; read-out: GI (%). The procedure, abridged:
as §1

For a further assay, the system named is K-562. The assay is classed as cell-based. Particulars: Homo sapiens, K562; K-562, 10^–5 M; read-out: GI (%). A digest of the protocol:
as §1

In a further assay the test system is TK-10. In kind it is cell-based. The settings on record: Homo sapiens; TK-10, 10^–5 M; read-out: GI (%). A digest of the protocol:
as §1

Another assay deals with SF-295. The assay is classed as cell-based, human. Particulars: SF-295, 10^–5 M. The procedure, abridged:
as §1

Another assay concerns MDA-MB-468. The assay is classed as cell-based, human. The settings on record: MDA-MB-468, 10^–5 M. A digest of the protocol:
as §1

A further assay deals with HOP-62. The assay is classed as cell-based, human. The settings on record: HOP-62, 10^–5 M. A digest of the protocol: as §1
The next assay has as its system BT-549. In kind it is cell-based, human. The settings on record: BT-549, 10^–5 M. The procedure, abridged: as §1
In a further assay the test system is UO-31. The assay is classed as cell-based, human. The settings on record: UO-31, 10^–5 M. The procedure, abridged: as §1
The test system of the next assay is U251. In kind it is cell-based, human. The settings on record: U251, 10^–5 M. A digest of the protocol: as §1

For `O=C1C(Nc2ccc(I)cc2)=CC(c2ccccc2)N1c1ccc(I)cc1` (stereo not shown) [3a], the inhibition at 10 µM in the assay with OVCAR-5 amounted to 0%; in the assay on SR, 44%; in the assay on SK-MEL-28, 2%; in the assay on PC-3, 0%; in the assay on UACC-62, 0%; with HCC-2998 it was 0%. In addition, the inhibition at 10 µM in the assay on A549/ATCC amounted to 5%; in the assay with ACHN it was 13%; in the assay with MALME-3M, 0%; in the assay with NCI-H460 it was 1%; with IGROV1 it was 16%; in the assay on DU-145, 0%. Further, the inhibition at 10 µM was determined as 4% in the assay with CCRF-CEM, 20% in the assay on OVCAR-4, 0% in the assay on K-562 and 12% in the assay with TK-10.

With `O=C1C(Nc2ccc(I)cc2)=CC(c2ccc(F)cc2)N1c1ccc(I)cc1` (stereo not shown) [3b], the inhibition at 10 µM with OVCAR-5 came to 0%; in the assay on SR, 92%; in the assay with SK-MEL-28, 8%; in the assay with PC-3, 0%; in the assay on UACC-62, 0%; with HCC-2998, 0%. Further, the inhibition at 10 µM in the assay with A549/ATCC amounted to 13%; in the assay with ACHN, 35%; in the assay on MALME-3M, 6%; with NCI-H460, 17%; in the assay on IGROV1, 7%; in the assay with DU-145, 9%. The inhibition at 10 µM is 74% in the assay with CCRF-CEM, 38% in the assay with OVCAR-4, 5% in the assay on K-562 and 27% in the assay on TK-10.

Regarding `O=C1C(Nc2ccc(I)cc2)=CC(c2ccc(Cl)cc2)N1c1ccc(I)cc1` (stereo not shown) [3c], the inhibition at 10 µM in the assay with OVCAR-5 worked out at 0%; in the assay on SR it was 41%; in the assay with SK-MEL-28, 12%; with PC-3 it was 1%; with UACC-62, 5%; in the assay on HCC-2998, 0%. Further, the inhibition at 10 µM in the assay with A549/ATCC was determined as 4%; in the assay on ACHN, 21%; in the assay on MALME-3M, 17%; in the assay on NCI-H460, 7%; with IGROV1, 16%; in the assay on DU-145, 10%. In addition, the inhibition at 10 µM in the assay with CCRF-CEM turned out to be 15%; in the assay on OVCAR-4, 34%; in the assay with K-562 it was 10%; in the assay on TK-10, 1%.

Turning to `O=C1C(Nc2ccc(I)cc2)=CC(c2ccc(Br)cc2)N1c1ccc(I)cc1` (stereo not shown) [3d], the inhibition at 10 µM in the assay on OVCAR-5 stood at 0%; in the assay on SR, 0%; in the assay with SK-MEL-28, 12%; with PC-3, 0%; with UACC-62 it was 0%; in the assay on HCC-2998, 0%. Also, the inhibition at 10 µM was 0% in the assay on A549/ATCC; 15% with ACHN; 0% in the assay with MALME-3M; 0% in the assay with NCI-H460; 16% in the assay with IGROV1; 0% in the assay with DU-145. In addition, the inhibition at 10 µM worked out at 17% in the assay with CCRF-CEM, 30% in the assay on OVCAR-4, 15% with K-562 and 0% in the assay on TK-10.

With `O=C1C(Nc2ccc(I)cc2)=CC(c2cc(C(F)(F)F)cc(C(F)(F)F)c2)N1c1ccc(I)cc1` (stereo not shown) [3f], the inhibition at 10 µM with OVCAR-5 is 9%; with SR, 47%; with SK-MEL-28, 9%; in the assay on PC-3, 25%; in the assay with UACC-62 it was 0%; in the assay on HCC-2998, 2%. Further, the inhibition at 10 µM in the assay with A549/ATCC is 16%; in the assay on ACHN it was 49%; with MALME-3M, 0%; with NCI-H460, 35%; in the assay with IGROV1 it was 0%; in the assay on DU-145, 5%. In addition, the inhibition at 10 µM in the assay with CCRF-CEM is 100%; with OVCAR-4, 69%; in the assay on K-562, 26%; in the assay with TK-10 it was 57%.

Consider `O=C1C(Nc2ccc(I)cc2)=CC(c2ccc(O)cc2)N1c1ccc(I)cc1` (stereo not shown) [3g], for which the “GI (%)” value with SF-295 is reported as 48%; in the assay with MDA-MB-468, 96%; in the assay on HOP-62, 5%; in the assay on BT-549, 54%; in the assay with UO-31, 54%; in the assay on U251, 29%. The inhibition at 10 µM was determined as 24% in the assay with OVCAR-5; 100% with SR; 42% with SK-MEL-28; 73% in the assay with PC-3; 33% in the assay with UACC-62; 53% in the assay with HCC-2998. For the same molecule, the inhibition at 10 µM in the assay on A549/ATCC worked out at 22%; with MALME-3M it was 83%; with NCI-H460 it was 69%; in the assay on IGROV1, 27%; with DU-145, 58%; with CCRF-CEM, 94%. Besides, the inhibition at 10 µM in the assay with OVCAR-4 is 85%; in the assay with K-562 it was 78%; with TK-10, 43%.

In the case of `COc1ccccc1C1C=C(Nc2ccc(I)cc2)C(=O)N1c1ccc(I)cc1` (stereo not shown) [3i], the “GI (%)” value with SF-295 is 28%; with MDA-MB-468 it was 43%; with HOP-62 it was 0%; in the assay with BT-549, 2%; with UO-31 it was 27%; with U251, 0%. For the same molecule, the inhibition at 10 µM in the assay on OVCAR-5 is 0%; with SR it was 23%; in the assay with SK-MEL-28 it was 12%; in the assay with PC-3, 15%; in the assay on UACC-62, 21%; with HCC-2998 it was 21%. Besides, the inhibition at 10 µM was found to be 6% in the assay on A549/ATCC; 45% in the assay on MALME-3M; 9% in the assay with NCI-H460; 57% in the assay on IGROV1; 13% with DU-145; 0% with CCRF-CEM. Besides, the inhibition at 10 µM in the assay on OVCAR-4 is 60%; with K-562, 9%; in the assay with TK-10, 30%.

Turning to `COc1ccc(C2C=C(Nc3ccc(I)cc3)C(=O)N2c2ccc(I)cc2)cc1OC` (stereo not shown) [3j], the “GI (%)” value in the assay on SF-295 was 0%; in the assay with MDA-MB-468 it was 22%; in the assay on HOP-62, 0%; with BT-549, 0%; in the assay on UO-31 it was 0%; in the assay with U251, 0%. Further, the inhibition at 10 µM in the assay on OVCAR-5, in the assay with SR, in the assay on SK-MEL-28, in the assay on PC-3, in the assay with UACC-62 and in the assay with HCC-2998 was 0% throughout. Also, the inhibition at 10 µM in the assay on A549/ATCC was 5%; with ACHN, 0%; in the assay on MALME-3M it was 0%; in the assay on NCI-H460, 0%; in the assay on IGROV1, 0%; with DU-145, 0%. Also, the inhibition at 10 µM in the assay on CCRF-CEM, in the assay on OVCAR-4, in the assay with K-562 and in the assay with TK-10 was 0% in each case.

As to `COc1cc(OC)c(C2C=C(Nc3ccc(I)cc3)C(=O)N2c2ccc(I)cc2)cc1OC` (stereo not shown) [3k], the “GI (%)” value in the assay on SF-295 came to 2%; with MDA-MB-468, 44%; in the assay on HOP-62, 0%; with BT-549, 10%; in the assay on UO-31, 0%; with U251, 0%. In addition, the inhibition at 10 µM in the assay on OVCAR-5 turned out to be 0%; in the assay with SR, 7%; in the assay on SK-MEL-28, 0%; in the assay on PC-3 it was 0%; in the assay with UACC-62, 0%; in the assay with HCC-2998 it was 5%. Further, the inhibition at 10 µM was 3% with A549/ATCC; 0% in the assay with ACHN; 0% in the assay with MALME-3M; 0% in the assay on NCI-H460; 2% in the assay on IGROV1; 0% in the assay on DU-145. Further, the inhibition at 10 µM with CCRF-CEM turned out to be 0%; with OVCAR-4 it was 3%; in the assay on K-562 it was 0%; with TK-10, 1%.

Source of the values: publication PMC12736255, “Reinvestigating Pyrrol-2-One-Based Compounds: From Antimicrobial Agents to Promising Antitumor Candidates” (Pharmaceuticals, 2025).
